Holding throughout (format): in vivo
Series [1] concerns directly sowed Oryza sativa. The series can be described thus: Test Example 4: effect on crop by application to foliage (diluvial soil, plastic box). As to conditions: Application herbicide amount 320 g/ha; effect on crop. The method, boiled down: (§1)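 Greenhouse plants (25° C. to 30° C., 14 d, diluvial soil) receive a foliar spray of water-diluted emulsifiable formulation at defined g/ha. Grading after 3 weeks uses a six-step herbicidal-ratio scale, with 4 covering 70% to <90% and 1 covering 5% to <20%.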

The subject of another series is Brassica campestris L. The description is as above. The settings on record: Application herbicide amount 320 g/ha; effect on crop. The essentials: as §1
The next series relates to Zea mays. The series is described as above. As to conditions: Application herbicide amount 320 g/ha; effect on crop. The essentials:
as §1

A further series deals with Triticum aestivum. Described as above. The settings on record: Application herbicide amount 320 g/ha; effect on crop. The method, boiled down:
as §1

A further series concerns Glycine max. The series is described as above. The settings on record: Application herbicide amount 320 g/ha; effect on crop. The essentials:
as §1

Another series relates to Avena fatua. The series is described as follows: Test Example 4: herbicidal effect by application to foliage (diluvial soil, plastic box). As to conditions: Application herbicide amount 320 g/ha. The essentials:
as §1

The subject of the next series is Apera spica-venti. The description is as above. As to conditions: Application herbicide amount 320 g/ha. The method, boiled down: as §1
In series [2] the test system is Echinochloa crus-galli var. crus-galli. Described as above. As to conditions: Application herbicide amount 320 g/ha. The method, boiled down: as §1
Another series relates to Chenopodium album. The series is described as above. As to conditions: Application herbicide amount 320 g/ha. The method, boiled down:
as §1

A further series concerns Lolium multiflorum Lam. The series is described as above. As to conditions: Application herbicide amount 320 g/ha. The essentials:
as §1

The next series concerns Setaria viridis. Described as above. The settings on record: Application herbicide amount 320 g/ha. The method, boiled down:
as §1

The subject of another series is Abutilon theophrasti. The description is as above. As to conditions: Application herbicide amount 320 g/ha. The essentials:
as §1

The next series deals with Galium spurium. The description is as above. As to conditions: Application herbicide amount 320 g/ha. The essentials: as §1
A further series relates to Digitaria ciliaris. Described as above. As to conditions: Application herbicide amount 320 g/ha. The essentials: as §1
Another series deals with Veronica persica. Described as above. As to conditions: Application herbicide amount 320 g/ha. The method, boiled down: as §1
Another series has as its system Alopecurus myosuroides. Described as above. The settings on record: Application herbicide amount 320 g/ha. The essentials: as §1
In series [3] the test system is Beta vulgaris ssp. vulgaris. The series can be described thus: Test Example 4: effect on crop by application to foliage (diluvial soil, plastic box). As to conditions: Application herbicide amount 320 g/ha; effect on crop. The method, boiled down: as §1

With `Cc1nnc(NC(=O)c2ccc(C(F)(F)F)n3c(Nc4ccccc4)nnc23)o1` [1-082], the d in series [1] is 3 (Herbicidal ratio of 40% or more and less than 70%). For the same molecule, the g in the series with Brassica campestris L. is listed as 0 (Herbicidal ratio of 5% or less (almost no effect)). Also, the b with Zea mays was 0 (Herbicidal ratio of 5% or less (almost no effect)). Besides, the e in the series with Triticum aestivum is given as 0 (Herbicidal ratio of 5% or less (almost no effect)). In the series with Glycine max, the c is 0 (Herbicidal ratio of 5% or less (almost no effect)). Moreover, in the series with Avena fatua, the I is 0 (Herbicidal ratio of 5% or less (almost no effect)). The L in the series with Apera spica-venti. was 1 (Herbicidal ratio of 5% or more and less than 20%). Also, the H in series [2] is 4 (Herbicidal ratio of 70% or more and less than 90%). The O in the series on Chenopodium album is on record as 5 (Herbicidal ratio of 90% or more (almost completely withered)). Also, the K in the series on Lolium multiflorum Lam. was 1 (Herbicidal ratio of 5% or more and less than 20%). The G with Setaria viridis was 3 (Herbicidal ratio of 40% or more and less than 70%). The M in the series with Abutilon theophrasti is 4 (Herbicidal ratio of 70% or more and less than 90%). For the same molecule, the Q with Galium spurium was 0 (Herbicidal ratio of 5% or less (almost no effect)). Also, in the series with Digitaria ciliaris, the F was 4 (Herbicidal ratio of 70% or more and less than 90%). In the series with Veronica persica, the R was 4 (Herbicidal ratio of 70% or more and less than 90%). The J with Alopecurus myosuroides is 0 (Herbicidal ratio of 5% or less (almost no effect)).
In the case of `Cc1nnc(NC(=O)c2cc(C)c(C(F)(F)F)n3c(C(C)C)nnc23)o1` [1-075], the d in series [1] is listed as 0 (Herbicidal ratio of 5% or less (almost no effect)). Besides, the g in the series with Brassica campestris L. was 1 (Herbicidal ratio of 5% or more and less than 20%). Further, the b with Zea mays is recorded as 0 (Herbicidal ratio of 5% or less (almost no effect)). In addition, in the series with Triticum aestivum, the e is on record as 0 (Herbicidal ratio of 5% or less (almost no effect)). Further, the f in series [3] is 1 (Herbicidal ratio of 5% or more and less than 20%). For the same molecule, the c with Glycine max is recorded as 0 (Herbicidal ratio of 5% or less (almost no effect)). Besides, in the series on Avena fatua, the I is 0 (Herbicidal ratio of 5% or less (almost no effect)). Further, in the series with Apera spica-venti., the L is on record as 0 (Herbicidal ratio of 5% or less (almost no effect)). Also, the H in series [2] is 3 (Herbicidal ratio of 40% or more and less than 70%). The O in the series on Chenopodium album is listed as 5 (Herbicidal ratio of 90% or more (almost completely withered)). For the same molecule, in the series on Lolium multiflorum Lam., the K is reported as 0 (Herbicidal ratio of 5% or less (almost no effect)). For the same molecule, the G with Setaria viridis was 1 (Herbicidal ratio of 5% or more and less than 20%). The M in the series with Abutilon theophrasti was 1 (Herbicidal ratio of 5% or more and less than 20%). Further, in the series with Galium spurium, the Q was 0 (Herbicidal ratio of 5% or less (almost no effect)). The F in the series with Digitaria ciliaris was 3 (Herbicidal ratio of 40% or more and less than 70%). For the same molecule, in the series on Veronica persica, the R is 3 (Herbicidal ratio of 40% or more and less than 70%). The J with Alopecurus myosuroides is reported as 0 (Herbicidal ratio of 5% or less (almost no effect)).
Consider `Cc1nnc(NC(=O)c2ccc(C(F)(F)F)n3c(CO)nnc23)o1` [1-067], for which the d in [1] is 3 (Herbicidal ratio of 40% or more and less than 70%). For the same molecule, the g with Brassica campestris L. was 4 (Herbicidal ratio of 70% or more and less than 90%). In the series on Zea mays, the b was 2 (Herbicidal ratio of 20% or more and less than 40%). Moreover, the e with Triticum aestivum is listed as 0 (Herbicidal ratio of 5% or less (almost no effect)). The f in series [3] was 4 (Herbicidal ratio of 70% or more and less than 90%). Also, the c with Glycine max is listed as 0 (Herbicidal ratio of 5% or less (almost no effect)). For the same molecule, the I with Avena fatua is 1 (Herbicidal ratio of 5% or more and less than 20%). Further, the L with Apera spica-venti. was 0 (Herbicidal ratio of 5% or less (almost no effect)). Moreover, in [2], the H is listed as 5 (Herbicidal ratio of 90% or more (almost completely withered)). Moreover, the O in the series on Chenopodium album is 5 (Herbicidal ratio of 90% or more (almost completely withered)). The K in the series on Lolium multiflorum Lam. was 0 (Herbicidal ratio of 5% or less (almost no effect)). In addition, in the series with Setaria viridis, the G is 4 (Herbicidal ratio of 70% or more and less than 90%). The M in the series on Abutilon theophrasti was 4 (Herbicidal ratio of 70% or more and less than 90%). Besides, in the series with Galium spurium, the Q is 3 (Herbicidal ratio of 40% or more and less than 70%). For the same molecule, the F in the series with Digitaria ciliaris was 5 (Herbicidal ratio of 90% or more (almost completely withered)). Besides, the R in the series on Veronica persica is 4 (Herbicidal ratio of 70% or more and less than 90%). For the same molecule, the J in the series with Alopecurus myosuroides was 0 (Herbicidal ratio of 5% or less (almost no effect)).
Regarding `C#CC[S+]([O-])c1nnc2c(C(=O)Nc3nnc(C)o3)ccc(C(F)(F)F)n12` (stereo not shown) [1-077], the d in series [1] was 3 (Herbicidal ratio of 40% or more and less than 70%). Moreover, the g with Brassica campestris L. was 3 (Herbicidal ratio of 40% or more and less than 70%). Besides, the b in the series with Zea mays was 0 (Herbicidal ratio of 5% or less (almost no effect)). Further, the e with Triticum aestivum is reported as 0 (Herbicidal ratio of 5% or less (almost no effect)). Further, the f in series [3] was 3 (Herbicidal ratio of 40% or more and less than 70%). Also, in the series with Glycine max, the c is reported as 0 (Herbicidal ratio of 5% or less (almost no effect)). The I in the series with Avena fatua was 0 (Herbicidal ratio of 5% or less (almost no effect)). Besides, in the series with Apera spica-venti., the L is on record as 0 (Herbicidal ratio of 5% or less (almost no effect)). Besides, the H in [2] is 4 (Herbicidal ratio of 70% or more and less than 90%). Also, the O in the series on Chenopodium album is 5 (Herbicidal ratio of 90% or more (almost completely withered)). The K with Lolium multiflorum Lam. was 0 (Herbicidal ratio of 5% or less (almost no effect)). Also, the G in the series on Setaria viridis was 2 (Herbicidal ratio of 20% or more and less than 40%). Moreover, in the series on Abutilon theophrasti, the M was 2 (Herbicidal ratio of 20% or more and less than 40%). Moreover, in the series with Galium spurium, the Q was 1 (Herbicidal ratio of 5% or more and less than 20%). For the same molecule, the F in the series with Digitaria ciliaris was 4 (Herbicidal ratio of 70% or more and less than 90%). Further, the R in the series with Veronica persica was 3 (Herbicidal ratio of 40% or more and less than 70%). In addition, the J in the series with Alopecurus myosuroides is reported as 0 (Herbicidal ratio of 5% or less (almost no effect)).
